Test results taken from the supplement of paper PMC4862054.

Tests used:
Settings in all cases: incubation time: 72 h
[1] = test system: MDA-MB-468; assay: normalised response (% of control), CellTiter-Glo; higher = more viable cells (100 = DMSO, 0 = benzethonium chloride kill control)
Method: (§1)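 DSRT, 72 h incubation, CellTox Green / CellTiter-Glo readout. Signal is normalised to DMSO and benzethonium chloride controls. Value is the normalised response at the highest dose.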

[2] = test system: HCC1143; assay: as above
Method: as §1

[3] = test system: BT-474; assay: as above
Method: as §1

[4] = test system: CAL-148; assay: as above
Method: as §1

[5] = test system: DU-4475; assay: as above
Method: as §1

[6] = test system: Hs578T; assay: as above
Method: as §1

[7] = test system: MCF-10A; assay: as above
Method: as §1

[8] = test system: BT-549; assay: as above
Method: as §1

[9] = test system: CAL-85-1; assay: as above
Method: as §1

[10] = test system: HCC1599; assay: as above
Method: as §1

[11] = test system: MDA-MB-453; assay: as above
Method: as §1

[12] = test system: MDA-MB-436; assay: as above
Method: as §1

[13] = test system: HCC1937; assay: as above
Method: as §1

[14] = test system: HDQ-P1; assay: as above
Method: as §1

[15] = test system: MDA-MB-231; assay: as above
Method: as §1

[16] = test system: CAL-51; assay: as above
Method: as §1

[17] = test system: CAL-120; assay: as above
Method: as §1

[18] = test system: MFM-223; assay: as above
Method: as §1

[19] = test system: SK-BR-3; assay: as above
Method: as §1

[20] = test system: HCC1143; assay: normalised response (% of control), CellTox Green; higher = less cell death (100 = DMSO, 0 = benzethonium chloride kill control)
How it was run: (§2)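 CellTox Green fluorescence (485/520 nm) and, after 10 min at room temperature, CellTiter-Glo luminescence were read from breast cancer cell lines incubated 72 h in 384-well plates. Cells were seeded as 20 µl suspension onto compound at 5 concentrations in 10-fold steps over a 10,000-fold range chosen per compound. Each plate was normalised to 0.1 % DMSO (100) and a positive kill control (0). Values are normalised signals, one per concentration.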

[21] = test system: BT-474; assay: as above
How it was run: as §2

[22] = test system: CAL-148; assay: as above
How it was run: as §2

[23] = test system: DU-4475; assay: as above
How it was run: as §2

[24] = test system: Hs578T; assay: as above
How it was run: as §2

[25] = test system: MCF-10A; assay: as above
How it was run: as §2

[26] = test system: BT-549; assay: as above
How it was run: as §2

[27] = test system: CAL-85-1; assay: as above
How it was run: as §2

[28] = test system: HCC1599; assay: as above
How it was run: as §2

[29] = test system: MDA-MB-453; assay: as above
How it was run: as §2

[30] = test system: MDA-MB-436; assay: as above
How it was run: as §2

[31] = test system: HCC1937; assay: as above
How it was run: as §2

[32] = test system: MDA-MB-231; assay: as above
How it was run: as §2

[33] = test system: CAL-51; assay: as above
How it was run: as §2

[34] = test system: CAL-120; assay: as above
How it was run: as §2

[35] = test system: MFM-223; assay: as above
How it was run: as §2

[36] = test system: MDA-MB-468; assay: as above
How it was run: as §2

[37] = test system: HDQ-P1; assay: as above
How it was run: as §2

[38] = test system: MDA-MB-468; assay: normalised response (% of control), CellTiter-Glo; higher = more viable cells (100 = DMSO, 0 = benzethonium chloride kill control); remark: listed apart in the source
How it was run: as §2

[39] = test system: HCC1143; assay: as above; remark: listed apart in the source
How it was run: as §2

[40] = test system: BT-474; assay: as above; remark: listed apart in the source
How it was run: as §2

[41] = test system: CAL-148; assay: as above; remark: listed apart in the source
How it was run: as §2

[42] = test system: DU-4475; assay: as above; remark: listed apart in the source
How it was run: as §2

[43] = test system: Hs578T; assay: as above; remark: listed apart in the source
How it was run: as §2

[44] = test system: MCF-10A; assay: as above; remark: listed apart in the source
How it was run: as §2

[45] = test system: BT-549; assay: as above; remark: listed apart in the source
How it was run: as §2

[46] = test system: CAL-85-1; assay: as above; remark: listed apart in the source
How it was run: as §2

[47] = test system: HCC1599; assay: as above; remark: listed apart in the source
How it was run: as §2

[48] = test system: MDA-MB-453; assay: as above; remark: listed apart in the source
How it was run: as §2

[49] = test system: MDA-MB-436; assay: as above; remark: listed apart in the source
How it was run: as §2

[50] = test system: HCC1937; assay: as above; remark: listed apart in the source
How it was run: as §2

[51] = test system: HDQ-P1; assay: as above; remark: listed apart in the source
How it was run: as §2

[52] = test system: MDA-MB-231; assay: as above; remark: listed apart in the source
How it was run: as §2

[53] = test system: CAL-51; assay: as above; remark: listed apart in the source
How it was run: as §2

[54] = test system: CAL-120; assay: as above; remark: listed apart in the source
How it was run: as §2

[55] = test system: MFM-223; assay: as above; remark: listed apart in the source
How it was run: as §2

[56] = test system: SK-BR-3; assay: as above; remark: listed apart in the source
How it was run: as §2

SMILES: C[C@]12CC[C@@H]3c4ccc(OC(=O)N(CCCl)CCCl)cc4CC[C@H]3[C@@H]1CC[C@@H]2O [Estramustine] (10000 nM)
- normalised response [1]: 87.7%
- normalised response [2]: 97.5%
- normalised response [3]: 95%
- normalised response [4]: 78.5%
- normalised response [5]: 85.5%
- normalised response [6]: 92.7%
- normalised response [7]: 88%
- normalised response [8]: 106%
- normalised response [9]: 94.2%
- normalised response [10]: 95.5%
- normalised response [11]: 92.4%
- normalised response [12]: 91.7%
- normalised response [13]: 91.7%
- normalised response [14]: 105%
- normalised response [15]: 96.6%
- normalised response [16]: 93.3%
- normalised response [17]: 103%
- normalised response [18]: 85.9%
- normalised response [19]: 87.4%
- normalised response [20]: 110%
- normalised response [21]: 99%
- normalised response [22]: 101%
- normalised response [23]: 96.4%
- normalised response [24]: 79.7%
- normalised response [25]: 106%
- normalised response [26]: 58%
- normalised response [27]: 130%
- normalised response [28]: 95%
- normalised response [29]: 96.2%
- normalised response [30]: 99.6%
- normalised response [31]: 81.2%
- normalised response [32]: 102%
- normalised response [33]: 74%
- normalised response [34]: 98.3%
- normalised response [35]: 96.7%

SMILES: C[C@]1(O)C[C@@H](c2nc(-c3ccc4ccc(-c5ccccc5)nc4c3)c3c(N)nccn32)C1 [Linsitinib] (10000 nM)
- normalised response [1]: 59.2%
- normalised response [2]: 68.5%
- normalised response [3]: 68.8%
- normalised response [4]: 88.2%
- normalised response [5]: 85.5%
- normalised response [6]: 91.9%
- normalised response [7]: 26.1%
- normalised response [8]: 76%
- normalised response [9]: 69.6%
- normalised response [10]: 50.9%
- normalised response [11]: 80%
- normalised response [12]: 85.5%
- normalised response [13]: 88.7%
- normalised response [14]: 53.5%
- normalised response [15]: 77.2%
- normalised response [16]: 126%
- normalised response [17]: 73.6%
- normalised response [18]: 83.1%
- normalised response [19]: 49.9%
- normalised response [36]: 96.4%
- normalised response [20]: 119%
- normalised response [21]: 95.6%
- normalised response [22]: 98.4%
- normalised response [23]: 97.4%
- normalised response [24]: 68.2%
- normalised response [25]: 101%
- normalised response [26]: 111%
- normalised response [27]: 89.2%
- normalised response [28]: 101%
- normalised response [29]: 99.2%
- normalised response [31]: 105%
- normalised response [37]: 107%
- normalised response [32]: 65%
- normalised response [33]: 95.4%
- normalised response [34]: 97.5%
- normalised response [35]: 89.9%

SMILES: Cc1ccc([N+](=O)[O-])cc1S(=O)(=O)N(C)/N=C/c1cnc2ccc(Br)cn12 [PIK-75] (100 nM)
- normalised response [38]: 14.4%
- normalised response [39]: 38.8%
- normalised response [40]: 18.7%
- normalised response [41]: 44.8%
- normalised response [42]: 8.8%
- normalised response [43]: 14.7%
- normalised response [44]: 10.5%
- normalised response [45]: 8.06%
- normalised response [46]: 14.4%
- normalised response [47]: 47.9%
- normalised response [48]: 56%
- normalised response [49]: 11.2%
- normalised response [50]: 36.9%
- normalised response [51]: 22.1%
- normalised response [52]: 8.41%
- normalised response [53]: 12.6%
- normalised response [54]: 38.3%
- normalised response [55]: 31.3%
- normalised response [56]: 19.3%
- normalised response [36]: 84.6%
- normalised response [20]: 89.3%
- normalised response [21]: 78.3%
- normalised response [22]: 36.5%
- normalised response [23]: 71.8%
- normalised response [24]: 17.7%
- normalised response [25]: 17.8%
- normalised response [26]: 65.2%
- normalised response [27]: 22%
- normalised response [28]: 79.3%
- normalised response [29]: 101%
- normalised response [30]: 50.7%
- normalised response [31]: 78.6%
- normalised response [37]: 77.6%
- normalised response [32]: -1.87%
- normalised response [33]: 7.25%
- normalised response [34]: 85.3%
- normalised response [35]: 84%

SMILES: CC(C)(C)c1cnc(CSc2cnc(NC(=O)C3CCNCC3)s2)o1 [SNS-032] (100 nM)
- normalised response [38]: 12.6%
- normalised response [39]: 36.6%
- normalised response [40]: 68.2%
- normalised response [41]: 42.8%
- normalised response [42]: 86.9%
- normalised response [43]: 55.6%
- normalised response [44]: 79.4%
- normalised response [45]: 20.3%
- normalised response [46]: 28.2%
- normalised response [47]: 90.2%
- normalised response [48]: 46.2%
- normalised response [49]: 27.9%
- normalised response [50]: 60.8%
- normalised response [51]: 44.2%
- normalised response [52]: 29.7%
- normalised response [53]: 31.9%
- normalised response [54]: 70.9%
- normalised response [55]: 76.9%
- normalised response [56]: 33.1%
- normalised response [36]: 94.5%
- normalised response [20]: 85%
- normalised response [21]: 86.4%
- normalised response [22]: -22.6%
- normalised response [23]: 95.2%
- normalised response [24]: 60.3%
- normalised response [25]: 84.7%
- normalised response [26]: 88.6%
- normalised response [27]: 35.7%
- normalised response [28]: 88.5%
- normalised response [29]: 94.9%
- normalised response [30]: 59.7%
- normalised response [31]: 53.3%
- normalised response [37]: 57.6%
- normalised response [32]: 4.71%
- normalised response [33]: 39.7%
- normalised response [34]: 90.5%
- normalised response [35]: 91.5%

SMILES: Cn1cnc2c(F)c(Nc3ccc(Br)cc3Cl)c(C(=O)NOCCO)cc21 [Selumetinib] (100 nM)
- normalised response [38]: 89.6%
- normalised response [39]: 92%
- normalised response [40]: 84.2%
- normalised response [41]: 94%
- normalised response [42]: 81%
- normalised response [43]: 89.4%
- normalised response [44]: 45.7%
- normalised response [45]: 104%
- normalised response [46]: 100%
- normalised response [47]: 113%
- normalised response [48]: 103%
- normalised response [49]: 96.2%
- normalised response [50]: 85%
- normalised response [51]: 70.6%
- normalised response [52]: 84.7%
- normalised response [53]: 94.1%
- normalised response [54]: 90%
- normalised response [55]: 94.9%
- normalised response [56]: 91%
- normalised response [36]: 75.3%
- normalised response [20]: 86.3%
- normalised response [21]: 96.5%
- normalised response [22]: 90.4%
- normalised response [23]: 92.2%
- normalised response [24]: 102%
- normalised response [25]: 94.8%
- normalised response [26]: 104%
- normalised response [27]: 94.9%
- normalised response [28]: 89.2%
- normalised response [29]: 101%
- normalised response [30]: 77.2%
- normalised response [31]: 100%
- normalised response [37]: 97.9%
- normalised response [32]: 77.1%
- normalised response [33]: 98.7%
- normalised response [34]: 95.8%
- normalised response [35]: 94.9%
